Reference: ChEMBL document CHEMBL1201862, “PubChem BioAssay data set” (2004)
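Protocol summary: plate cells (96-well), add compound at 5 concentrations, incubate 48 h, interpolate endpoints linearly. At the GI50, growth is halved.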 Active and inactive are the calls of the source. Rule as the data show it: active = GI50 up to about 1.1 µM and inactive = higher.

Columns and labels:
Assay in all cases: NCI tumour cell line growth inhibition, 48 h
A549 = system: A549
CCRF-CEM = system: CCRF-CEM
HCC 2998 = system: HCC 2998
IGROV-1 = system: IGROV-1
K562 = system: K562
KM12 = system: KM12
M14 = system: M14
NCI-H522 = system: NCI-H522
NCI/ADR-RES = system: NCI/ADR-RES
OVCAR-8 = system: OVCAR-8
PC-3 = system: PC-3
RXF 393 = system: RXF 393
SF-268 = system: SF-268
SK-MEL-28 = system: SK-MEL-28
SN12C = system: SN12C
U-251 = system: U-251
UO-31 = system: UO-31
Malme-3M = system: Malme-3M
SNB-19 = system: SNB-19
Hs-578T = system: Hs-578T

SMILES | GI50 (A549) | GI50 (CCRF-CEM) | GI50 (HCC 2998) | GI50 (IGROV-1) | GI50 (K562) | GI50 (KM12) | GI50 (M14) | GI50 (NCI-H522) | GI50 (NCI/ADR-RES) | GI50 (OVCAR-8) | GI50 (PC-3) | GI50 (RXF 393) | GI50 (SF-268) | GI50 (SK-MEL-28) | GI50 (SN12C) | GI50 (U-251) | GI50 (UO-31) | GI50 (Malme-3M) | GI50 (SNB-19) | GI50 (Hs-578T)
N#CI1OC(C(F)(F)F)(C(F)(F)F)c2ccccc21 | 62.5 µM (inactive) | 18.7 µM (inactive) | 20 µM (inactive) | 16.4 µM (inactive) | 12.1 µM (inactive) | 17 µM (inactive) | 19 µM (inactive) | 7.19 µM (inactive) | 15.8 µM (inactive) | 16.3 µM (inactive) | 15.8 µM (inactive) | 16.8 µM (inactive) | 17.8 µM (inactive) | 15.5 µM (inactive) | 23.1 µM (inactive) | 21.2 µM (inactive) | 14.6 µM (inactive) | – | – | –
COc1ccc2[nH]c3c([N+](=O)[O-])ccc(NCCCN(C)C)c3/c(=N/CCCN(C)C)c2c1 | 1.74 µM (inactive) | 0.448 µM (active) | 1.24 µM (inactive) | 1.86 µM (inactive) | 1.42 µM (inactive) | 1.08 µM (active) | > 10 µM (inactive) | – | – | 0.893 µM (active) | 1.06 µM (active) | 0.631 µM (active) | 1.64 µM (inactive) | 1.89 µM (inactive) | 1.35 µM (inactive) | – | – | 9.75 µM (inactive) | – | –
CSc1nc(-c2cc3c(c(SC)n2)CCCCC3)cc2c1CCCCC2 | > 100 µM (inactive) | > 100 µM (inactive) | > 100 µM (inactive) | 22.8 µM (inactive) | > 100 µM (inactive) | > 100 µM (inactive) | > 100 µM (inactive) | 7.67 µM (inactive) | > 100 µM (inactive) | > 100 µM (inactive) | > 100 µM (inactive) | > 100 µM (inactive) | 50.7 µM (inactive) | > 100 µM (inactive) | > 100 µM (inactive) | > 100 µM (inactive) | > 100 µM (inactive) | – | > 100 µM (inactive) | –
CN1CCc2c(sc3nc(Nc4ccccc4)n(N)c(=O)c23)C1 | > 100 µM (inactive) | 59.2 µM (inactive) | – | > 100 µM (inactive) | 37.1 µM (inactive) | > 100 µM (inactive) | 24.1 µM (inactive) | – | > 100 µM (inactive) | > 100 µM (inactive) | > 100 µM (inactive) | 63.4 µM (inactive) | > 100 µM (inactive) | – | > 100 µM (inactive) | – | > 100 µM (inactive) | – | > 100 µM (inactive) | > 100 µM (inactive)
COc1c(O)cc2ccnc3c2c1N(C)C=C3 | > 100 µM (inactive) | – | > 100 µM (inactive) | > 100 µM (inactive) | > 100 µM (inactive) | > 100 µM (inactive) | > 100 µM (inactive) | – | > 100 µM (inactive) | 95.1 µM (inactive) | > 100 µM (inactive) | > 100 µM (inactive) | > 100 µM (inactive) | > 100 µM (inactive) | 67.6 µM (inactive) | > 100 µM (inactive) | 39.4 µM (inactive) | – | > 100 µM (inactive) | > 100 µM (inactive)
Nn1c(Cc2ccc(Cl)cc2)n[nH]c1=O | > 100 µM (inactive) | > 100 µM (inactive) | > 100 µM (inactive) | > 100 µM (inactive) | > 100 µM (inactive) | > 100 µM (inactive) | > 100 µM (inactive) | > 100 µM (inactive) | > 100 µM (inactive) | > 100 µM (inactive) | – | > 100 µM (inactive) | > 100 µM (inactive) | > 100 µM (inactive) | > 100 µM (inactive) | > 100 µM (inactive) | 34.3 µM (inactive) | > 100 µM (inactive) | > 100 µM (inactive) | > 100 µM (inactive)
COc1ccc(/C=N/Nc2nc3ccccc3c(=O)n2-c2ccccc2)cc1 | > 100 µM (inactive) | > 100 µM (inactive) | > 100 µM (inactive) | > 100 µM (inactive) | > 100 µM (inactive) | > 100 µM (inactive) | > 100 µM (inactive) | > 100 µM (inactive) | > 100 µM (inactive) | > 100 µM (inactive) | > 100 µM (inactive) | > 100 µM (inactive) | > 100 µM (inactive) | > 100 µM (inactive) | > 100 µM (inactive) | > 100 µM (inactive) | 2.28 µM (inactive) | > 100 µM (inactive) | > 100 µM (inactive) | –
O=C1CC(c2ccccc2Cl)Oc2ccccc21 (stereo not given) | – | 33.9 µM (inactive) | 71.1 µM (inactive) | 21.4 µM (inactive) | 17.3 µM (inactive) | 27 µM (inactive) | 25.9 µM (inactive) | – | 13.1 µM (inactive) | 26.4 µM (inactive) | 31.3 µM (inactive) | 17.2 µM (inactive) | 37.2 µM (inactive) | > 100 µM (inactive) | – | 27.7 µM (inactive) | 57.5 µM (inactive) | – | 34.9 µM (inactive) | 26.3 µM (inactive)
